Assay results from patent publication US20250109118A1, “HETEROCYCLIC COMPOUNDS AS SHP2 INHIBITORS, COMPOSITIONS COMPRISING THE HETEROCYCLIC COMPOUND, AND METHODS OF USE THEREOF” (JS INNOMED HOLDINGS LTD., priority 2021, published 2025).

Legend:
SHP2 (PTPN11/SHP2-FL) = target: T1, SHP2 (PTPN11/SHP2-FL) (Homo sapiens, UniProt Q06124); experiment: SHP2 biochemical assay (DiFMUP prompt fluorescence); settings: 0.5 nM SHP2, 0.35 μM activating peptide, DiFMUP 100 μM; read-out: SHP2 bichemical activity (IC50)
T1 construct: SHP2 (PTPN11/SHP2-FL, RBC produced, no cat #); purchased RBC no cat #
T1 sequence (Q06124 1-593): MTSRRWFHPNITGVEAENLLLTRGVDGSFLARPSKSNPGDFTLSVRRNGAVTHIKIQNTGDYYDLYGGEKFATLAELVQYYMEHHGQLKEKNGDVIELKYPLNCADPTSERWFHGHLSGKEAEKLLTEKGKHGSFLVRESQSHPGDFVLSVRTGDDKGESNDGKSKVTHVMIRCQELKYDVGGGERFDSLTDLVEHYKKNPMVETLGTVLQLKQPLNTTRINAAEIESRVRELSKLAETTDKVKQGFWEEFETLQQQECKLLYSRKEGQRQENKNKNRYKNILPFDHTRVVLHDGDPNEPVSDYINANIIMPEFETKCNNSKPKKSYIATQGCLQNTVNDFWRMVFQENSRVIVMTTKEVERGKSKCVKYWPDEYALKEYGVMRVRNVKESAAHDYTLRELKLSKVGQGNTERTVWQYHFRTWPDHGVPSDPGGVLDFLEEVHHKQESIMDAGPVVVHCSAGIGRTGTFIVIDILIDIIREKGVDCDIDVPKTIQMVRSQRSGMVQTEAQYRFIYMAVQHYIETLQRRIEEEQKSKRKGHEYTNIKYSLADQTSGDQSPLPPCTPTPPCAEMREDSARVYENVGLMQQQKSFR
Experimental: SHP2 is allosterically activated through binding of bis-tyro syiphorphorylated peptides to its Src Homology 2 (SH2) domains. The latter activation step leads to the release of the auto-inhibitory interface of SHP2, which in turn renders the SHP2 PTP active and available for substrate recognition and reaction catalysis. The catalytic activity of SHP2 was monitored using the surrogate substrate DiFMUP in a prompt fluorescence assay format. Specifically, the phosphatase reactions were performed at room temperature in 384-well black polystyrene plate, flat bottom, low flange, non-binding surface (Corning, Cat #3575) using a final reaction volume of 20 μL and the following assay buffer conditions: 60 mM HEPES, pH 7.2, 75 mM NaCl, 75 mM KCl, 1 mM EDTA, 0.01% Brij-35, 5 mM DTT, and 10% DMSO (final). The inhibition of SHP2 from the tested compounds (final concentrations varying from 0.003-100 μM) was monitored using an assay in which 0.5 nM of SHP2 (PTPN11/SHP2-FL, RBC produced, no cat #) was incubated with 0.35 μM of the peptide H2NLN(pY)IDLDLV(dPEG8)LST(pY)ASINFQK-amide. After 20 minutes of incubation at room temperature, the surrogate substrate DiFMUP (6,8-difluoro-7-hydroxy-4-methylcoumarin, Invitrogen, cat #D6567, 100 μM final concentration) was added to the reaction. The fluorescence signal was monitored using a microplate reader (Envision, Perkin-Elmer) using excitation and emission wavelengths of 355 nm and 460 nm, respectively. The inhibitor dose response curves were analyzed using normalized IC50 regression curve fitting with control based normalization.
The IC50 values of for Compounds disclosed are listed in Table 2, A: ≤10 nM; B: >10 nM and ≤100 nM; C: >100 nM and ≤1 uM; and D: >1 μM.

MiaPaCa-2 cells = experiment: MiaPaCa-2 Cell proliferation assay in 3D culture (CCK8); assay type: cell-based; settings: Homo sapiens, MIA PaCa-2, 120 h; 3D spheroid culture, 5 days with compound, CCK8 readout
Procedure, shortened: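 Cells grown as spheroids (2500/well, ultra-low attachment, 10% FBS) for 24 h, then exposed 5 days to ten 3-fold compound dilutions at 0.1% DMSO. Viability by CCK8/WST-8, 1.5 h at 37 °C, absorbance 450 nm; IC50 from triplicates.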

Row | SMILES | IC50 (SHP2 (PTPN11/SHP2-FL)) [nM] | IC50 (MiaPaCa-2 cells) [nM]
1 | CC1(CN)CCN(c2cnc(Sc3cccc(S(=O)(=O)NC(=O)c4ccccc4)c3Cl)cn2)CC1 [Example 7, N-((3-((5-(4-(aminomethyl)-4-methylpiperidin-1-yl)pyrazin-2-yl)thio)-2-chlorophenyl)sulfonyl)benzamide] | 10 to 100 | 500 to 5000
2 | CC1(CN)CCN(c2cnc(Sc3cccc(C(=O)NS(=O)(=O)c4ccccc4)c3Cl)c(N)n2)CC1 [Example 5, 3-((3-amino-5-(4-(aminomethyl)-4-methylpiperidin-1-yl)pyrazin-2-yl)thio)-2-chloro-N-(phenylsulfonyl)benzamide] | ≤ 10 | ≤ 500
3 | CC1(CN)CCN(c2cnc(Sc3cccc(NC(=O)NS(C)(=O)=O)c3Cl)c(N)n2)CC1 [Example 40, N-((3-((3-amino-5-(4-(aminomethyl)-4-methylpiperidin-1-yl)pyrazin-2-yl)thio)-2-chlorophenyl)carbamoyl)methanesulfonamide] | ≤ 10 | ≤ 500
4 | CC1(CN)CCN(c2cnc(Sc3cccc(C(=O)NS(=O)(=O)c4ccncc4)c3Cl)cn2)CC1 [Example 28, 3-((5-(4-(aminomethyl)-4-methylpiperidin-1-yl)pyrazin-2-yl)thio)-2-chloro-N-(pyridin-4-ylsulfonyl)benzamide] | ≤ 10 | 500 to 5000
5 | CC1(CN)CCN(c2cnc(Sc3cccc(C(=O)NS(=O)(=O)c4ccccn4)c3Cl)c(N)n2)CC1 [Example 35, 3-((3-amino-5-(4-(aminomethyl)-4-methylpiperidin-1-yl)pyrazin-2-yl)thio)-2-chloro-N-(pyridin-2-ylsulfonyl)benzamide] | ≤ 10 | ≤ 500
6 | CC1(CN)CCN(c2cnc(Sc3cccc(NC(=O)NS(=O)(=O)c4ccncc4)c3Cl)c(N)n2)CC1 [Example 41, N-((3-((3-amino-5-(4-(aminomethyl)-4-methylpiperidin-1-yl)pyrazin-2-yl)thio)-2-chlorophenyl)carbamoyl)pyridine-4-sulfonamide] | ≤ 10 | 5000 to 50000
7 | CC1(CN)CCN(c2cnc(Sc3cccc(C(=O)NS(C)(=O)=O)c3Cl)cn2)CC1 [Example 26, 3-((5-(4-(aminomethyl)-4-methylpiperidin-1-yl)pyrazin-2-yl)thio)-2-chloro-N-(methylsulfonyl)benzamide] | ≤ 10 | ≤ 500

More lines, now with the values ahead:

Row | IC50 (SHP2 (PTPN11/SHP2-FL)) [nM] | IC50 (MiaPaCa-2 cells) [nM] | SMILES
8 | ≤ 10 | ≤ 500 | CC1(CN)CCN(c2cnc(Sc3cccc(NC(=O)NS(C)(=O)=O)c3Cl)cn2)CC1 [Example 29, N-((3-((5-(4-(aminomethyl)-4-methylpiperidin-1-yl)pyrazin-2-yl)thio)-2-chlorophenyl)carbamoyl)methanesulfonamide]
9 | 10 to 100 | 5000 to 50000 | CC1(CN)CCN(c2cnc(Sc3cccc(C(=O)NS(C)(=O)=O)c3Cl)c(N)n2)CC1 [Example 37, 3-((3-amino-5-(4-(aminomethyl)-4-methylpiperidin-1-yl)pyrazin-2-yl)thio)-2-chloro-N-(methylsulfonyl)benzamide]
10 | ≤ 10 | 500 to 5000 | CC1(CN)CCN(c2cnc(Sc3cccc(C(=O)NS(=O)(=O)c4ccccc4F)c3Cl)cn2)CC1 [Example 23, 3-((5-(4-(aminomethyl)-4-methylpiperidin-1-yl)pyrazin-2-yl)thio)-2-chloro-N-((2-fluorophenyl)sulfonyl)benzamide]
11 | ≤ 10 | 500 to 5000 | CC1(CN)CCN(c2cnc(Sc3cccc(C(=O)NS(=O)(=O)c4cccnc4)c3Cl)c(N)n2)CC1 [Example 38, 3-((3-amino-5-(4-(aminomethyl)-4-methylpiperidin-1-yl)pyrazin-2-yl)thio)-2-chloro-N-(pyridin-3-ylsulfonyl)benzamide]
12 | 10 to 100 | 5000 to 50000 | CC1(N)CCN(c2cnc(Sc3cccc(S(=O)(=O)NC(=O)c4ccccc4)c3Cl)c(N)n2)CC1 [Example 8, N-((3-((3-amino-5-(4-amino-4-methylpiperidin-1-yl)pyrazin-2-yl)thio)-2-chlorophenyl)sulfonyl)benzamide]
13 | ≤ 10 | 500 to 5000 | CC1(CN)CCN(c2cnc(Sc3cccc(C(=O)NS(=O)(=O)C4CCCC4)c3Cl)cn2)CC1 [Example 30, 3-((5-(4-(aminomethyl)-4-methylpiperidin-1-yl)pyrazin-2-yl)thio)-2-chloro-N-(cyclopentylsulfonyl)benzamide]
14 | 10 to 100 | ≤ 500 | CC1(N)CCN(c2cnc(Sc3cccc(NC(=O)NS(=O)(=O)c4ccccc4)c3Cl)cn2)CC1 [Example 1, N-((3-((5-(4-amino-4-methylpiperidin-1-yl)pyrazin-2-yl)thio)-2-chlorophenyl)carbamoyl)benzenesulfonamide]
15 | 10 to 100 | 500 to 5000 | CC1(CN)CCN(c2cnc(Sc3cccc(C(=O)NS(=O)(=O)C4CC4)c3Cl)c(N)n2)CC1 [Example 36, 3-((3-amino-5-(4-(aminomethyl)-4-methylpiperidin-1-yl)pyrazin-2-yl)thio)-2-chloro-N-(cyclopropylsulfonyl)benzamide]
